Measurements: patent publication US8445539B2, “Alpha-aminoamide derivatives useful in the treatment of psychiatric disorders” (priority 2007, dated 2013)

What was measured:
[1] = biological target: MAO-B (Rattus norvegicus, UniProt P19643); assay: biochemical
Protocol: The crude homogenate was centrifuged at 2220 rpm for 10 minutes at +4° C. and the supernatant recovered. The pellet was homogenized and centrifuged again. The two supernatants were pooled and centrifuged at 9250 rpm for 10 minutes. The pellet was resuspended in fresh buffer and centrifuged at 11250 rpm for 10 minutes at +4° C. The resulting pellet was stored at −80° C.
The mitochondrial pellet (500 μg protein) was resuspended in 0.1 M phosphate buffer (pH 7.4). 500 μl of the suspension were added to a 50 μl solution of the test compound or buffer, and incubated for 30 min at 37° C. (preincubation) then the substrate (50 μl) was added. […] (^14C-PEA, 0.5 μM).
The amount of neutral and/or acidic metabolites formed as a result of MAO activity was obtained by measuring the radioactivity of the eluate.
The activity of MAO in the sample, corresponding to a percentage of radioactivity compared with the control activity in the absence of the inhibitor, was expressed as nmoles of substrate transformed/mg protein/min.

[2] = test system: MK-801-induced PPI disruption; assay: Prepulse inhibition of startle with disruption by MK-801; assay type: in vivo, Wistar rats; settings: for Percentage of inhibition: % PPI; for Percentage of inhibition / Acoustic tone alone / Startle amplitude on prepulse + pulse trials: pretreatment ralfinamide methanesulfonate 90 mg/kg oral, mean ± SEM; for Acoustic tone alone / Startle amplitude on prepulse + pulse trials: startle amplitude
Description: Prepulse inhibition (PPI) is a cross-species phenomenon (i.e., it is present in mammals ranging from mice to humans), yet it is relatively impaired among schizophrenic patients. The PPI procedure is used to assess the subject's ability to “gate” or filter environmental information. In the acoustic (startle model) of sensorimotor gating a weak acoustic stimulus (prepulse) decrease the reflexive flinching response (startle) produced by a second, more intense, stimulus (the pulse). Drugs like dizocilpine (MK-801) or amphetamine disrupt PPI and represent an animal model of schizophrenia; antipsychotic drugs are able to prevent PPI deficit. The test is quite useful to screen potential antipsychotic drugs.
Methods: Male Wistar rats, weighing 200-300 g were used. Apparatus: All startle and PPI testing has been performed in four startle chambers. Each ventilated illuminated and sound proof chamber contained a clear non-restrictive Plexiglas cylinder resting on a platform. A high-frequency loudspeaker inside the chamber produced both a continuous background noise of 70 dB and the various acoustic stimuli. Vibrations of the Plexiglas cylinder caused by the whole-body startle response of the animal were transduced into analogue signals by a piezoelectric unit attached to the platform. These signals were then digitized and stored by a computer. Sixty-five readings were taken at 1-ms intervals starting at stimulus onset, and the average amplitude was used to determine the acoustic startle response. Sound levels is given in dB.
Prepulse inhibition session: After 5 min of habituation (background white noise, 70 dB), two types of acoustic stimuli were used: acoustic stimulus alone (120 dB, 40 ms) or the stimulus proceeded by a prepulse (76, 79, 82 dB, 40 ms) applied 100 ms before the stimulus. During each experimental session 20 trials of each type were presented with interstimulus interval of 20 s. The amplitudes were averaged for each individual animal, separately for both types of trials (stimulus alone or stimulus preceded by the prepulse). The degree of prepulse inhibition was shown as a percentage score (% PPI) calculated as […] a difference between the amplitude of the pulse-alone (P) and the amplitude of the prepulse+pulse trials (PP+P), divided by the amplitude of the pulse-alone trials and multiplied by 100. […] Substances and treatments: MK-801 0.2 mg/kg was dissolved in saline and was given i.p. In each experiment, […] were assigned to receive either compounds of the disclosure or vehicle and were tested in the PPI session using a between-subjects design. The order of drug treatment for the first experiment was test-compound, followed by MK-801; for the second experiment rats received test-compound and then amphetamine. Statistical Analysis: Multiple ANOVA was conducted followed by Dunnett's post hoc test.

[3] = test system: marble burying behaviour; assay: Marble Burying test; assay type: in vivo; settings: 80 mg/kg po; 30 min before test; CD1 mice; FIG. 1
Description: The Marble Burying Test is considered an animal model of anxiety/obsessive-compulsive disorder (OCD). Mice which are placed individually in a cage containing a number of glass marbles spontaneously tend to bury the glass marbles present.
Several compounds which attenuate anxiety, depression, psychosis or obsessive-compulsive disorders affect this behaviour reducing the number of marbles buried. Therefore the test has predictive validity for anti-anxiety and anti-OCD potential compounds.
CD1 mice were injected with ralfinamide at the doses of 10, 30, 60 and 80 mg/kg, po; fluoxetine (FLX) at 10 mg/kg, sc or saline and returned to their home cage. After 30 min (ralfinamide) or 60 min (fluoxetine), mice were individually placed in a new cage contained 12 evenly spaced glass marbles. After 30 min mice were removed from the cages and the number of glasses buried for at least two-thirds in the sawdust was counted.
One-way ANOVA followed by Bonferroni's multiple comparison test; n=6-8 mice per group *p<0.05; p***<0.001 versus control group

[4] = treatment MK-801 0.2 mg/kg i.p.

MAO-B, sequence (P19643 whole entry): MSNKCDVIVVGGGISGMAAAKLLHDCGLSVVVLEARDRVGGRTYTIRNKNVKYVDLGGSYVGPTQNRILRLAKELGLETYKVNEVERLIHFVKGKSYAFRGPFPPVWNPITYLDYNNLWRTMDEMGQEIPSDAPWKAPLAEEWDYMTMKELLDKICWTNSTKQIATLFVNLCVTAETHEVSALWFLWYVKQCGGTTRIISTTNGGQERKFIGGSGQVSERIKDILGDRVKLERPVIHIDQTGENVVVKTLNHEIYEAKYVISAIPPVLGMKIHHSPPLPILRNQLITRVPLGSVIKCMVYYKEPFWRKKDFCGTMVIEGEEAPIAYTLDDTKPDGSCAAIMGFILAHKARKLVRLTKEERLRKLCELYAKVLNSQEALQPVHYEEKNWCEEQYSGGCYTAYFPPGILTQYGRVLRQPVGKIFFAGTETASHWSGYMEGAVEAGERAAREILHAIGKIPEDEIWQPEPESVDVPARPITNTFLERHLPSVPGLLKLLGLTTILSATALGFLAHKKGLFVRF

Compound `C[C@H](NCc1ccc(OCc2ccccc2F)cc1)C(N)=O` [Ralfinamide methanesulfonate, (S)-(+)-2-[4-(2-fluorobenzyloxy)benzylamino]propanamide] has an IC50 [1] of 132 nM, a Percentage of inhibition [2, 4] of 21.92 ± 0.40 % and a Percentage of inhibition ([2]; treatment vehicle) of 44.16 ± 3.54%. For the same compound, the “Reversing the disruptive effect of MK-801 on PPI” value ([2]; orally, 90 mg/kg) was “active”, the Acoustic tone alone [2, 4] was 38.50 ± 1.36 and the “Startle amplitude on prepulse + pulse trials” value [2, 4] was 30.00 ± 0.90. The Acoustic tone alone ([2]; treatment vehicle) was 35.50 ± 0.45, the “Startle amplitude on prepulse + pulse trials” value ([2]; treatment vehicle) was 20.00 ± 1.51 and the “Number of buried marbles” value [3] was “significantly reduces”.
